Measurements from patent US20090123391A1, “Novel Formulations” (3M INNOVATIVE PROPERTIES COMPANY, priority 2006, published 2009).

Experiments:
[1] = Andersen Cascade Impactor (ACI) fine particle fraction of MDI; type: physicochemical; details: for Fine Particle Fraction (FPF) expressed as percentage of 25 μg, the total dose target: Example 1: Compound A MDI, 25 μg/act; for Fine Particle Fraction (FPF) expressed as percentage of 25 μg, the total dose target / Fine Particle Fraction expressed as a percentage of the total dose target, for Compound B, 10 μg and for the Compound A, 25 μg / Fine Particle Fraction (FPF) expressed as a percentage of the total dose target, for Compound C, 12.5 μg and for Compound A, 25 μg / Fine Particle Fraction (FPF) expressed as percentage of the total dose target of Compound E, 100 μg and for Compound A, 50 μg: HFA 134a; for Fine Particle Fraction expressed as a percentage of the total dose target, for Compound B, 10 μg and for the Compound A, 25 μg: Example 2: Compound A in combination with Compound B; for Fine Particle Fraction expressed as a percentage of the total dose target, for Compound B, 10 μg and for the Compound A, 25 μg / Fine Particle Fraction (FPF) expressed as a percentage of the total dose target, for Compound C, 12.5 μg and for Compound A, 25 μg: MDI; for Fine Particle Fraction (FPF) expressed as a percentage of the total dose target, for Compound C, 12.5 μg and for Compound A, 25 μg: Example 3: Compound A in combination with Compound C, 25/12.5 μg/act; for Fine Particle Fraction (FPF) expressed as a percentage of the total dose target, for Compound D, 100 μg, and for Compound A, 100 μg: Example 4: Compound A in combination with Compound D, HFA-134a MDI 100/100 μg/act; for Fine Particle Fraction (FPF) expressed as percentage of the total dose target of Compound E, 100 μg and for Compound A, 50 μg: Example 5: Compound E in combination with Compound A, MDI 100/50 μg/act
Text: The fine particle fraction of the aerosol formulations according to the invention may be measured by conventional techniques, for example, by cascade impaction by measuring particle size distribution. The Cascade Impactor is designed to mimic the human buccal cavity and bronchial tract and the cascade Impactor test is designed to reveal the amount of deposition of inhaled drug substance at various stages thereof. As used herein reference to the “cascade impaction” assay means determination of the deposition of the emitted dose in pressurised inhalations as defined in European Pharmacopoeia, Section 2.9.18, 5th edition “Preparations for Inhalation, Apparatus D”. Such techniques enable the “respirable fraction” of the aerosol formulations to be calculated. One method used to calculate the “respirable fraction” is by reference to “fine particle fraction” which is the amount of active ingredient collected in stages 3 to 5 (aerodynamic diameter 1.1-4.7 μm) which represents the lung, per actuation expressed as a percentage of the total amount of active ingredient delivered per actuation using the cascade impactor method described above. Earlier stages represent the aerosol device itself, the throat and the upper reaches of the bronchial tract, and the later stages representing potential systemic absorption through the wall of the lung which may cause serious side effects.
The Andersen Cascade Impactor Mark II (ACI) was assembled and the flow rate was set to 28.3 L/min. The units were primed four times with the test actuator prior to dose collection, shaking between actuations. Between 5 and 20 actuations were collected in the ACI assembly. The ACI was disassembled and the components were rinsed with an appropriate amount of solvent that ensures dissolution of all formulation ingredients. The rinsate was collected for analysis by conventional HPLC analysis.

[2] = Dose Through Unit (DTU) dose uniformity of MDI; type: physicochemical; details: for overall mean dose of medicament delivered through the actuator, combining beginning and end of use doses / overall mean dose delivered through the actuator, combined beginning and end of use: HFA 134a; for overall mean dose delivered through the actuator, combining beginning and end of use: Example 4: Compound A in combination with Compound D, HFA-134a MDI 100/100 μg/act, target output compound D 90 μg, compound A 90 μg; for overall mean dose delivered through the actuator, combined beginning and end of use: Example 5: Compound E in combination with Compound A, MDI 100/50 μg/act, target output Compound E 90 μg, Compound A 45 μg
Procedure: The dose collection apparatus (500 ml separatory funnel with a cotton plug) was assembled and the flow rate was set to 20 L/min. Test units were stored at ambient conditions for two weeks after manufacture prior to DTU testing. For the testing at the beginning of the unit, the MDIs were primed two times with a priming actuator and four times to waste with the test actuator, shaking the units between each actuation. Two test actuations were collected in the dose collection apparatus, shaking the unit between actuations. The collection apparatus was rinsed with an appropriate volume of diluent, and the rinsate with the collected dose was analyzed by conventional HPLC analysis. For end of unit testing, the MDIs were actuated an additional 48 times to waste, shaking between each actuation. The MDIs were then actuated four times to waste through a new test actuator. Two test actuations were then collected in the dose collection apparatus, shaking the unit between actuations. The collection apparatus was rinsed with an appropriate volume of diluent, and the rinsate with the collected dose was analyzed by conventional HPLC analysis.
The reported results are the average of ten units at both the beginning and end of unit use.

[3] = 0.1% w/w of polymer of formula (II), 12 Week at 40° C./75% relative humidity
[4] = 0.1% w/w of polymer of formula (II), Initial
[5] = surfactant-free, 12 Week at 40° C./75% relative humidity

Fine Particle Fraction (FPF) expressed as percentage of 25 μg, the total dose target [1, 3]: 22%
Fine Particle Fraction (FPF) expressed as percentage of 25 μg, the total dose target [1, 4]: 24%
Fine Particle Fraction (FPF) expressed as percentage of 25 μg, the total dose target [1, 5]: 16%
Fine Particle Fraction (FPF) expressed as percentage of 25 μg, the total dose target ([1]; surfactant-free, Initial): 17%
Fine Particle Fraction expressed as a percentage of the total dose target, for Compound B, 10 μg and for the Compound A, 25 μg [1, 3]: 35%
Fine Particle Fraction expressed as a percentage of the total dose target, for Compound B, 10 μg and for the Compound A, 25 μg [1, 4]: 32%
Fine Particle Fraction expressed as a percentage of the total dose target, for Compound B, 10 μg and for the Compound A, 25 μg [1, 5]: 18%
Fine Particle Fraction expressed as a percentage of the total dose target, for Compound B, 10 μg and for the Compound A, 25 μg ([1]; surfactant-free, Initial): 18%
Fine Particle Fraction (FPF) expressed as a percentage of the total dose target, for Compound C, 12.5 μg and for Compound A, 25 μg ([1]; 0.1% w/w polymer of formula (II), 12 Week 40° C./75 relative humidity): 20%
Fine Particle Fraction (FPF) expressed as a percentage of the total dose target, for Compound C, 12.5 μg and for Compound A, 25 μg ([1]; 0.1% w/w polymer of formula (II), Initial): 21%
Fine Particle Fraction (FPF) expressed as a percentage of the total dose target, for Compound C, 12.5 μg and for Compound A, 25 μg ([1]; surfactant-free, 12 Week 40° C./75 relative humidity): 16%
Fine Particle Fraction (FPF) expressed as a percentage of the total dose target, for Compound C, 12.5 μg and for Compound A, 25 μg ([1]; surfactant-free, Initial): 11%
Fine Particle Fraction (FPF) expressed as a percentage of the total dose target, for Compound D, 100 μg, and for Compound A, 100 μg [1, 3]: 19%
Fine Particle Fraction (FPF) expressed as a percentage of the total dose target, for Compound D, 100 μg, and for Compound A, 100 μg [1, 4]: 21%
Fine Particle Fraction (FPF) expressed as percentage of the total dose target of Compound E, 100 μg and for Compound A, 50 μg [1, 3]: 22%
Fine Particle Fraction (FPF) expressed as percentage of the total dose target of Compound E, 100 μg and for Compound A, 50 μg [1, 4]: 23%
overall mean dose of medicament delivered through the actuator, combining beginning and end of use doses ([2]; Example 1: Compound A MDI, 25 μg/act, 0.1% w/w of polymer of formula (II), 12 Week at 40° C./75% relative humidity, target output 22.5 μg/act): 98%
overall mean dose of medicament delivered through the actuator, combining beginning and end of use doses ([2]; Example 1: Compound A MDI, 25 μg/act, 0.1% w/w of polymer of formula (II), Initial, target output 22.5 μg/act): 98%
overall mean dose of medicament delivered through the actuator, combining beginning and end of use doses ([2]; Example 1: Compound A MDI, 25 μg/act, surfactant-free, 12 Week at 40° C./75% relative humidity, target output 22.5 μg/act): 72%
overall mean dose of medicament delivered through the actuator, combining beginning and end of use doses ([2]; Example 1: Compound A MDI, 25 μg/act, surfactant-free, Initial, target output 22.5 μg/act): 66%
overall mean dose of medicament delivered through the actuator, combining beginning and end of use doses ([2]; Example 2: Compound A in combination with Compound B, MDI, 25/10 μg/act, 0.1% w/w of polymer of formula (II), 12 Week at 40° C./75% relative humidity, target output Compound B 8.5 μg, Compound A 22.5 μg): 110%
overall mean dose of medicament delivered through the actuator, combining beginning and end of use doses ([2]; Example 2: Compound A in combination with Compound B, MDI, 25/10 μg/act, 0.1% w/w of polymer of formula (II), Initial, target output Compound B 8.5 μg, Compound A 22.5 μg): 107%
overall mean dose of medicament delivered through the actuator, combining beginning and end of use doses ([2]; Example 2: Compound A in combination with Compound B, MDI, 25/10 μg/act, surfactant-free, 12 Week at 40° C./75% relative humidity, target output Compound B 8.5 μg, Compound A 22.5 μg): 62%
overall mean dose of medicament delivered through the actuator, combining beginning and end of use doses ([2]; Example 2: Compound A in combination with Compound B, MDI, 25/10 μg/act, surfactant-free, Initial, target output Compound B 8.5 μg, Compound A 22.5 μg): 63%
overall mean dose of medicament delivered through the actuator, combining beginning and end of use doses ([2]; Example 3: Compound A in combination with Compound C, MDI, 25/12.5 μg/act, 0.1% w/w polymer of formula (II), 12 Week at 40° C./75 relative humidity, target output Compound C 11.3 μg, Compound A 22.5 μg): 107%
overall mean dose of medicament delivered through the actuator, combining beginning and end of use doses ([2]; Example 3: Compound A in combination with Compound C, MDI, 25/12.5 μg/act, 0.1% w/w polymer of formula (II), Initial, target output Compound C 11.3 μg, Compound A 22.5 μg): 101%
overall mean dose of medicament delivered through the actuator, combining beginning and end of use doses ([2]; Example 3: Compound A in combination with Compound C, MDI, 25/12.5 μg/act, surfactant-free, 12 Week at 40° C./75 relative humidity, target output Compound C 11.3 μg, Compound A 22.5 μg): 76%
overall mean dose of medicament delivered through the actuator, combining beginning and end of use doses ([2]; Example 3: Compound A in combination with Compound C, MDI, 25/12.5 μg/act, surfactant-free, Initial, target output Compound C 11.3 μg, Compound A 22.5 μg): 75%
overall mean dose delivered through the actuator, combining beginning and end of use [2, 3]: 111%
overall mean dose delivered through the actuator, combining beginning and end of use [2, 4]: 106%
overall mean dose delivered through the actuator, combined beginning and end of use [2, 3]: 109%
overall mean dose delivered through the actuator, combined beginning and end of use [2, 4]: 104%
SMILES: C[C@@H]1C[C@H]2[C@@H]3C[C@H](F)C4=CC(=O)C=C[C@]4(C)[C@@]3(F)[C@@H](O)C[C@]2(C)[C@@]1(OC(=O)c1ccco1)C(=O)SCF [Compound A, 6α, 9α-Difluoro-17α-[(2-furanylcarbonyl)oxy]-11β-hydroxy-16α-methyl-3-oxo-androsta-1,4-diene-17β-carbothioic acid S-fluoromethyl ester]
